Experimental data: patent publication US11766435B2, “N3-substituted iminopyrimidinones as antimalarial agents” (Merck Sharp & Dohme LLC, priority 2016, dated 2023)

Each molecule was assayed on asexual P. falciparum 3D7 parasites (assay: P. falciparum growth inhibition assay measuring LDH activity (Assay 1)). Conditions: 3D7 strain, parasitized red blood cells, 72 h incubation, LDH activity read by absorbance at 650 nm.
Assay type: cell-based
Protocol: A modified version of the assay described in Gamo, F. J., Sanz, L. M., Vidal, J., de Cozar, C., Alvarez, E., Lavandera, J. L., Vanderwall, D. E., Green, D. V., Kumar, V., Hasan, S., Brown, J. R., Peishoff, C. E., Cardon, L. R., Garcia-Bustos, J. F., Nature, 465 (2010) 305-310 (Gamo et al.) was used to assess the activity of compounds against asexual P. falciparum 3D7 parasites. Compounds were pre-dispensed in 384-well plates, RPMI/AlbuMAX growth media was added and P. falciparum inoculated. Plates were incubated for 72 h and then frozen at −80° C. overnight. Lactate dehydrogenase (LDH) activity was quantified with the modified cofactor 3-acetylpyridine adenine dinucleotide (APAD) (Sigma Aldrich) by measuring absorbance of the tetrazolium indicator nitro blue tetrazolium (NBT) (Sigma Aldrich) at 650 nm.
An inoculum of synchronous P. falciparum (3D7 strain) parasitized red blood cells (PRBC) at 0.7% parasitaemia and 2% haematocrit in RPMI-1640, 5% AlbuMAX, 2% D-sucrose, 0.3% glutamine and 150 μM hypoxanthine was used for the assay.
Compound master plates (384-well) were prepared by a 10 pt serial dilution of compounds, from 1 mM to 50.8 nM, in columns 3-12 and 13-22. DMSO was dispensed into columns 1 and 23 of the compound master plate to be used as the positive growth control (100% viability). […] Intermediate compound dilution plates were prepared by dispensing 1 μl from each well of the compound master plate into 11.5 μl of RPMI/AlbuMAX growth media. Duplicate assay plates (384-well) were then prepared by dispensing 0.5 μL of compound from the intermediate dilution plates into 9.5 μl of RPMI/AlbuMAX growth media. The parasite inoculum (30 μL) was dispensed into the assay plates containing compounds using a Multidrop dispenser (Thermo Scientific) such that the final assay volume was 40 μL and final compound concentration was 1 μM-0.05 nM (the volume of compound addition can be adjusted to the preferred and agreed screening concentration). The final DMSO concentration was 0.1% (ideally 0.2% to limit toxicity to parasites), but this is dependent on volume of compound DMSO stock solution that can be supplied. Plates were incubated at 37° C. for 72 h in an atmosphere of 5% CO2, 5% O2, […].
After 72 h of incubation, plates were frozen at −80° C. overnight and then thawed at room temperature for at least 4 h. To evaluate LDH activity, 45 μL of freshly made reaction mix (174 mM sodium L-lactate (Sigma Aldrich), 214 μM 3-acetyl pyridine adenine dinucleotide (APAD) (Sigma Aldrich), 270 μM nitro blue tetrazolium chloride (NBT) (Sigma Aldrich), 4.35 U/mL diaphorase (from Clostridium kluyveri) (Sigma Aldrich), 0.7% Tween 20, 100 mM Tris-HCl pH 7.5) was dispensed using a Multidrop dispenser (Thermo Scientific). Plates were shaken to ensure mixing and absorbance at 650 nm was monitored using a Perkin Elmer Envision plate reader after 30 min of incubation at room temperature. Data were normalized to percent growth inhibition using positive and negative controls, and analysed using TIBCO Spotfire software. […]

SMILES	IC50 [nM]
C[C@H](NC(=O)c1cccc(C(c2ccccc2)N2C(=N)NC(C)(C)CC2=O)c1)c1ccccc1 (single isomer, unassigned) [Compound 27]	14
C[C@H](NC(=O)c1cccc(C(c2ccccc2)N2C(=N)NC(C)(C)CC2=O)c1)c1ccccc1 (single isomer, unassigned) [Compound 28]	> 1000
CC(C)[C@]1(C)CC(=O)N(C(c2ccccc2)c2cccc(C(=O)N[C@@H](C)c3ccccc3)c2)C(=N)N1 (stereo partly shown) [Compound 1]	3
CC(C)[C@]1(C)CC(=O)N(Cc2cc(F)cc(C(=O)NC(CCN(C)C)c3ccccc3)c2)C(=N)N1 (stereo partly shown) [Compound 34]	310
CC(C)[C@]1(C)CC(=O)N(C(c2ccccc2)c2cccc(C(=O)N[C@@H](C)c3ccccc3)c2)C(=N)N1 (stereo partly shown) [Compound 55]	3.5
CC(C)[C@]1(C)CC(=O)N(C(c2ccccc2)c2cccc(C(=O)N[C@@H](C)c3ccccc3)c2)C(=N)N1 (stereo partly shown) [Compound 56]	360

Same assay, conditions: Plasmodium falciparum, 3D7, Erythrocyte, 72 h, 3D7 strain, parasitized red blood cells, 72 h incubation, LDH activity read by absorbance at 650 nm

SMILES	IC50 [nM]
CC(C)CC(c1ccc(C(F)(F)F)c(C(=O)N2Cc3nccnc3C2)c1)N1C(=N)N[C@](CC2CC2)(c2ccccc2)CC1=O (stereo partly shown) [Compound 2]	1.3
CC(C)[C@]1(C)CC(=O)N(Cc2ccc(C(=O)N[C@@H](C)c3cccc(F)c3)s2)C(=N)N1 [Compound 3]	1.37
CC(C)[C@]1(C)CC(=O)N(Cc2cc(F)cc(C(=O)N[C@H]3CCCc4ccccc43)c2)C(=N)N1 [Compound 4]	1.68
COCC[C@H](NC(=O)c1cc(Cl)cc(CN2C(=N)N[C@](C)(C(C)C)CC2=O)c1)c1ccccc1 [Compound 5]	2.53
CC(C)[C@]1(C)CC(=O)N(Cc2cc(F)cc(C(=O)N[C@H]3CCc4ccccc43)c2)C(=N)N1 [Compound 6]	2.92
N=C1N[C@](CC2CC2)(c2ccccc2)CC(=O)N1Cc1ccc(-c2ccncc2)c(C(=O)N2Cc3nccnc3C2)c1 [Compound 7]	3.27
N=C1N[C@](CC2CC2)(c2ccccc2)CC(=O)N1Cc1ccc(-c2ccccc2)c(C(=O)N2Cc3nccnc3C2)c1 [Compound 8]	3.42
COCC[C@H](NC(=O)c1cc(F)cc(CN2C(=N)NC3(CCCC3)CC2=O)c1)c1ccccc1 [Compound 9]	4.19
COCC[C@H](NC(=O)c1cccc(CN2C(=N)N[C@](C)(C(C)C)CC2=O)c1)c1ccccc1 [Compound 10]	5.34
COCC[C@H](NC(=O)c1cc(F)cc(CN2C(=N)N[C@](C)(C(C)C)CC2=O)c1)c1ccccc1 [Compound 11]	5.67
N=C1N[C@](CC2CC2)(c2ccccc2)CC(=O)N1Cc1ccc(Br)c(C(=O)N2Cc3nccnc3C2)c1 [Compound 12]	6.01
CC(C)[C@]1(C)CC(=O)N([C@H](C)c2cc(F)cc(C(=O)N[C@@H](C)c3ccccc3)c2)C(=N)N1 [Compound 13]	6.43
COCCC[C@H](NC(=O)c1cc(F)cc(CN2C(=N)N[C@](C)(C(C)C)CC2=O)c1)c1ccccc1 [Compound 14]	6.62
CC(C)[C@]1(C)CC(=O)N(Cc2cccc(N3C[C@@H](c4ccccc4)CC3=O)c2)C(=N)N1 [Compound 15]	7.74
CC(C)[C@]1(C)CC(=O)N([C@H](C)c2cccc(N3C[C@@H](c4ccccc4)CC3=O)c2)C(=N)N1 [Compound 16]	8.06
COCC[C@H](NC(=O)c1cc(F)cc(CN2C(=N)N[C@](C)(C(C)C)CC2=O)c1)c1ccc(F)cc1 [Compound 17]	10.6
CC(C)[C@]1(C)CC(=O)N(Cc2cc(C(=O)N[C@@H](C)c3ccccc3)ccc2F)C(=N)N1 [Compound 18]	12.9
CC(C)[C@]1(C)CC(=O)N(Cc2cc(F)cc(C(=O)NC3CCCCCC3)c2)C(=N)N1 [Compound 19]	14
CC(C)[C@]1(C)CC(=O)N([C@H](C)c2cccc(N3C[C@H](c4ccccc4)CC3=O)c2)C(=N)N1 [Compound 20]	14
CC(C)[C@]1(C)CC(=O)N([C@H](C)c2cccc(C(=O)N[C@@H](C)c3cccc(Cl)c3)c2)C(=N)N1 [Compound 21]	19.9
N=C1N[C@](CC2CC2)(c2ccccc2)CC(=O)N1Cc1ccc(C(F)(F)F)c(C(=O)N2CCn3c(nnc3C(F)(F)F)C2)c1 [Compound 22]	27.2
CC(C)[C@]1(C)CC(=O)N(Cc2cc(F)cc(C(=O)N[C@H](C)c3ccccc3)c2)C(=N)N1 [Compound 23]	33
CC(C)[C@]1(C)CC(=O)N(Cc2cc(F)cc(C(=O)N[C@@H](C)c3ccccc3)c2)C(=N)N1 [Compound 24]	48.8
C[C@@]1(c2c(F)cc(F)cc2F)CC(=O)N(Cc2cccc(C(=O)N3Cc4ccccc4C3)c2)C(=N)N1 [Compound 25]	139
CC(C)[C@]1(C)CC(=O)N([C@@H](C)c2cccc(N3C[C@H](c4ccccc4)CC3=O)c2)C(=N)N1 [Compound 26]	371

SMILES	IC50 [nM]
CCC1(CC)CC(=O)N(Cc2cc(F)cc(C(=O)N(C)[C@@H](C)c3ccccc3)c2)C(=N)N1 [Compound 29]	870
CC(C)[C@]1(C)CC(=O)N(Cc2cc(F)cc(C(=O)NC(CCN(C)C)c3ccccc3)c2)C(=N)N1 (stereo partly shown) [Compound 30]	260
CCC1(CC)CC(=O)N(Cc2cc(F)cc(C(=O)N[C@@H](C)c3ccccc3)c2)C(=N)N1 [Compound 31]	94
C[C@H](NC(=O)c1cc(F)cc(CN2C(=N)NC3(CCCC3)CC2=O)c1)c1ccccc1 [Compound 32]	500
C[C@H](NC(=O)c1cc(F)cc(CN2C(=N)NC3(CCCCC3)CC2=O)c1)c1ccccc1 [Compound 33]	260
CC(C)[C@]1(C)CC(=O)N(Cc2cc(F)cc(C(=O)N3Cc4ccccc4C3)c2)C(=N)N1 [Compound 35]	390
C[C@H](NC(=O)c1cc(F)cc(CN2C(=N)N[C@@](C)(c3ccccc3)CC2=O)c1)c1ccccc1 [Compound 36]	130
C[C@H](NC(=O)c1cc(F)cc(CN2C(=N)NC3(CCC(C)(C)CC3)CC2=O)c1)c1ccccc1 [Compound 37]	620
C[C@H](NC(=O)c1cc(F)cc(CN2C(=N)NC(c3ccccc3)(c3ccccc3)CC2=O)c1)c1ccccc1 [Compound 38]	570
C[C@H](NC(=O)c1cc(F)cc(CN2C(=N)NC3(CCC3)CC2=O)c1)c1ccccc1 [Compound 39]	1000
CC(C)[C@]1(C)CC(=O)N(Cc2ccc(C(=O)N[C@@H](C)c3ccccc3)cc2)C(=N)N1 [Compound 40]	630
CC(C)[C@]1(C)CC(=O)N(Cc2ccc(C(=O)NCc3ccccc3F)cc2)C(=N)N1 [Compound 41]	430
CC(C)[C@]1(C)CC(=O)N(Cc2ccc(C(=O)NCc3cccc(F)c3)cc2)C(=N)N1 [Compound 42]	480
CC(C)[C@]1(C)CC(=O)N(Cc2ccc(C(=O)NCc3ccc(F)cc3)cc2)C(=N)N1 [Compound 43]	860
Cc1ccccc1CNC(=O)c1ccc(CN2C(=N)N[C@](C)(C(C)C)CC2=O)cc1 [Compound 44]	320
Cc1cccc(CNC(=O)c2ccc(CN3C(=N)N[C@](C)(C(C)C)CC3=O)cc2)c1 [Compound 45]	810
Cc1ccc(CNC(=O)c2ccc(CN3C(=N)N[C@](C)(C(C)C)CC3=O)cc2)cc1 [Compound 46]	550
CC(C)[C@]1(C)CC(=O)N(Cc2ccc(C(=O)N3Cc4ccccc4C3)cc2)C(=N)N1 [Compound 47]	490
C[C@H](NC(=O)c1cc(F)cc(CN2C(=N)NCC(c3ccccc3)C2=O)c1)c1ccccc1 (stereo partly shown) [Compound 49]	770
CCC1(CC)CC(=O)N(Cc2cc(F)cc(C(=O)N3Cc4ccccc4C3)c2)C(=N)N1 [Compound 50]	610
CC(C)[C@]1(C)CC(=O)N(C(c2ccccc2)c2cccc(C(=O)N3Cc4ccccc4C3)c2)C(=N)N1 (stereo partly shown) [Compound 51]	49
CC(C)[C@]1(C)CC(=O)N(C(c2ccccc2)c2cccc(C(=O)N3Cc4nccnc4C3)c2)C(=N)N1 (stereo partly shown) [Compound 52]	270
CCC1(CC)CC(=O)N(Cc2cc(F)cc(C(=O)N3Cc4nccnc4C3)c2)C(=N)N1 [Compound 53]	870
CC1(C)CC(=O)N(C(c2ccccc2)c2cccc(C(=O)N3Cc4ccccc4C3)c2)C(=N)N1 (stereo not shown) [Compound 54]	390
